# Experimental data: patent publication US4485109A, “4-Aryl-4-piperidinecarbinols” (E. I. Du Pont de Nemours and Company, priority 1983, dated 1984)
# Where two headings read alike, the source gives them in different places.
# What was measured:
# [1] = Anorexia test from CNS screen (milk consumption in fasted mice); type: in vivo; conditions: fasted female mice, 0.5 h after dosing, 30 min milk access, ED50 estimated from quantal responses; for ED50: Mus musculus, po, 0.5 h
# Method: Female mice weighing 16-20 grams and fasted overnight for 17-21 h are used in these studies. At 0.5 h after administration of graded oral doses of compound prepared in aqueous Methocel® (methylcellulose, viscosity 100 CPS, grade MC, Dow Chemical Co.) and 2.8% Tween 80 and dosed at 0.1 mL per 10 grams of body weight, each mouse is transferred to an individual, clear, Lucite® compartment (13.3 cm×12.7 cm×12.7 cm) with a 0.64 cm×0.64 cm wire mesh floor. Five compartments are linearly arranged in each cage unit. Inside each compartment is a section of a black Lucite® bar (13 cm×1.2 cm×1.2 cm), in the top of which are ten spot depressions (0.8 cm diameter), each containing 0.05 mL of 50% sweetened condensed milk (Borden's Eagle Brand). 30 Minutes later the mice are returned to the "shoe-box" containers and the number of milk spots consumed by each mouse is counted. Fractions of spots consumed are also estimated and counted. Five mice […] per drug dose can drink a maximum of 50 spots (2.5 mL of milk). Nine or fewer spots consumed by 5 mice is considered to indicate anorexia. ED50 values are estimated based on the quantal responses obtained.
# [2] = tested on: tetrabenazine-induced depression; experiment: Antagonism (prevention) of tetrabenazine-induced sedation and depression in mice, orally; type: in vivo, mice (Carworth CF1 S female); conditions: tetrabenazine 32 mg/kg i.p. 30 min after compound; for ED50: Mus musculus, po, 1 h
# Source text: A standard procedure for detecting and comparing the antidepressant activity of the compounds of this invention, for which there is good correlation with human efficacy, is the prevention of tetrabenazine-induced sedation and depression in mice. (Everett, "The Dopa Response Potentiation Test and Its Use in Screening for Antidepressant Drugs", pp. 164-167 in Antidepressant Drugs [Proceedings of the First International Symposium], S. Garattini and M. N. G. Dukes (editors), 1967).
# Groups of 10 Carworth CF1 S female mice, 18-21 g each, each fasted 1.5 h and were intubated with antagonist compounds at oral doses, such as 0, 1, 3, 9, 27 and 81 mg/kg in 0.20 mL of 1% Methocel® (methylcellulose).The mice were challenged 30 minutes later with tetrabenazine (as the methanesulfonate), 32 mg/kg intraperitoneally (dissolved in 0.20 mL 0.05% aqueous KCl at pH 2.0). One hour after administration of antagonist (30 minutes after administration of tetrabenazine) the mice were examined for signs of exploratory activity and ptosis (eye lid closure). Normal exploratory activity (relief from sedation) was recorded when a mouse, lifted by the tail from a group of 10 in a testing box and placed on a stainless steel testing box lid (12.5 inch (31.8 cm) by 8 inch (20.3 cm) with 0.33 inch mesh), either turned its head horizontally 30° in both directions or moved to the edge of the screen within 10 seconds after being placed on the screen. Relief from ptosis was recorded when, at exactly two seconds after placing the mouse facing the observer, lid closure was less than 50% in both eyes.
# [3] = tested on: tetrabenazine-induced depression; experiment: as above; type: in vivo, mice (Carworth CF1 S female); conditions: Mus musculus, po, footnote *: peak time values
# [4] = mice, oral, at one hour post-drug, 60 min
# [5] = read-out: ORAL ED50 for prevention of exploratory loss, mice, oral, at one hour post-drug
# [6] = read-out: ORAL ED50 for prevention of ptosis, mice, oral, at one hour post-drug
SMILES,ED50 for anorexia ([1]; oral) [mg/kg],"ORAL ED50 for prevention of exploratory loss [2, 4] [mg/kg]","ORAL ED50 for prevention of ptosis [2, 4] [mg/kg]",ED50 [1] [mg/kg],"ED50 [2, 5] [mg/kg]","ED50 [2, 6] [mg/kg]","ED50 ([3]; read-out: ORAL ED50 for prevention of exploratory loss (peak time value), mice, oral) [mg/kg]","ED50 ([3]; read-out: ORAL ED50 for prevention of ptosis (peak time value), mice, oral) [mg/kg]"
"CN1CCC(c2cccc(C(F)(F)F)c2)(C(C)(C)O)CC1 [Example 2A, 4-(3'-Trifluoromethylphenyl)-α,α,1-trimethyl-4-piperidinemethanol]",36,0.01,0.014,–,–,–,–,–
"CN1CCC(c2cccc(F)c2)(C(C)(C)O)CC1 [Example 4, 4-(3'-Fluorophenyl)-α,α,1-trimethyl-4-piperidinemethanol]",–,–,–,60,0.2,0.12,–,–
"CN1CCC(c2cccc(Cl)c2)(C(C)(C)O)CC1 [Example 6, 4-(3'-Chlorophenyl)-α,α,1-trimethyl-4-piperidinemethanol]",–,–,–,60,0.04,0.03,–,–
"CN1CCC(c2ccc(Cl)cc2)(C(C)(C)O)CC1 [Example 7, 4-(4'-Chlorophenyl)-α,α,1-trimethyl-4-piperidinemethanol]",–,–,–,20,0.57,0.33,–,–
"CCC(O)(CC)C1(c2cccc(Cl)c2)CCN(C)CC1 [Example 8, 4-(3'-Chlorophenyl)-α,α-diethyl-1-methyl-4-piperidinemethanol]",–,–,–,20,0.29,0.26,–,–
"Cc1cccc(C2(C(C)(C)O)CCN(C)CC2)c1 [Example 10, 4-(3'-Tolyl)-α,α,1-trimethyl-4-piperidinemethanol]",–,–,–,20,0.04,0.04,–,–
"COc1cccc(C2(C(C)(C)O)CCN(C)CC2)c1 [Example 16, 4-(3'-Methoxyphenyl)-α,α,1-trimethyl-4-piperidinemethanol]",–,–,–,60,–,–,0.12,0.077
"CCC(C)(O)C1(c2cccc(OC)c2)CCN(C)CC1 (stereo not drawn) [Example 17, 4-(3'-Methoxyphenyl)-α,1-dimethyl-α-ethyl-4-piperidinemethanol]",–,–,–,60,0.1,0.11,–,–
"CN1CCC(c2cccc(C(F)(F)F)c2)(C2(O)CCCC2)CC1 [Example 30, 1-[1'-Methyl-4'-(3""-trifluoromethylphenyl)-4'-piperidinyl]cyclopentanol]",–,–,–,60,0.17,0.084,–,–
"CCC(C)(O)C1(c2cccc(C(F)(F)F)c2)CCN(C)CC1 (stereo not drawn) [Example 31, 4-(3'-Trifluoromethylphenyl)-α,1-dimethyl-α-ethyl-4-piperidinemethanol]",–,–,–,20,0.064,0.056,–,–
"CN1CCC(c2ccc(Oc3ccccc3)cc2)(C(C)(C)O)CC1 [Example 32, 4-(4'-Phenoxyphenyl)-α,α,1-trimethyl-4-piperidinemethanol]",–,–,–,60,> 81,81,–,–
"COc1cccc(C2(C(C)(C)O)CCN(Cc3ccccc3)CC2)c1OC [Example 37, 4-(2',3'-Dimethoxyphenyl)-1-benzyl-α,α-dimethyl-4-piperidinemethanol]",–,–,–,60,> 81,81,–,–
"COc1ccc2cc(C3(C(C)(C)O)CCN(C)CC3)ccc2c1 [Example 39, 4-(6'-Methoxy-2'-naphthyl)-α,α,1-trimethyl-4-piperidinemethanol]",–,–,–,60,0.33,< 0.33,–,–
"CCN1CCC(c2cccc(C(F)(F)F)c2)(C(C)(C)O)CC1 [Example 41, 4-(3'-Trifluoromethylphenyl)-α,α-dimethyl-1-ethyl-4-piperidinemethanol]",–,–,–,60,0.73,0.46,–,–
